The test system of data set [1] is HIV-1IIIB infected MT-4 cells. Description: Antiviral activity in HIV-1IIIB infected MT-4 cells (MTT method). The class given is cell-based. Particulars: Human immunodeficiency virus 1, MT4, 120 h, MOI 0.01, MT-4 cells, 5 days, read-out: EC50 (concentration required for inhibition of cell disorder due to HIV infection by 50%). The protocol: Immediately after infection, HIV-1IIIB infected MT-4 cells (3.0×10^4/well, MOI (Multiplicity of infection): 0.01) were added to a 96-well microtiter plate together with the test compounds having different concentrations. The cells were cultured in a carbon dioxide incubator at 37° C. for 5 days, and the number of living cells was measured in accordance with the MTT (tetrazolium) method ([…] et al., J. of Virol. Method, 20, 309-321 (1988)). The antiviral activity is represented the concentration required for inhibition of cell disorder due to HIV infection by 50% (EC50: 50% Effective Concentration), and expressed using μM, and the results are shown in Table 2.

Data set [2] deals with T1, receptors CXCR4 (Homo sapiens, UniProt P61073).
T1 construct: endogenous in cells; host or cells: MT4 cells
Description: Inhibition of 125I-SDF-1 binding to CXCR4 on MT4 cells. Particulars: 125I-SDF-1 ligand, 2 hours under ice-cooling, read-out: Inhibition rate (binding-inhibition %). On the procedure: MT4 cells (5×10^6/0.2 ml/well) were cultured on a 24-well microtiter plate. After the cells were incubated for 24 hours at 37° C. in a carbon dioxide gas incubator, a culture medium was replaced with a buffer solution (0.1% BSA-containing RPMI-1640). Together with a ligand (^125I-SDF-1″, specific activity: 2,200 Ci/mmol; manufactured by Daiichi Chemicals Co., Ltd. (Tokyo)), test materials of various concentrations were subjected to a binding reaction for 2 hours under ice-cooling.

For data set [3], the system named is ICR mice (male). Particulars: mouse, in vivo, 4 days. On the procedure:
The acute toxicity of the aforementioned compound was examined. Specifically, 7-week-old ICR mice (male) were divided into several groups (4 or 5 mice in each group), and the mice were bred for 1 week for habituation. Subsequently, each of the compounds of Examples was dissolved in distilled water or physiological saline, and the solution was administered to the mice via tail vein (dose: 15 mg/kg) twice a day for 4 days. On the fifth day, dead mice were counted.

SMILES strings stand for the structures. pEC50: −log10 of the molar value.

In patent publication US20040254221A1, “Novel Nitrogenous Compound and use thereof” (priority 2001, published 2004) one finds EC50, inhibition and Dead mice/test mice data, which are given here for 15 molecules.

T1 sequence (P61073 whole entry): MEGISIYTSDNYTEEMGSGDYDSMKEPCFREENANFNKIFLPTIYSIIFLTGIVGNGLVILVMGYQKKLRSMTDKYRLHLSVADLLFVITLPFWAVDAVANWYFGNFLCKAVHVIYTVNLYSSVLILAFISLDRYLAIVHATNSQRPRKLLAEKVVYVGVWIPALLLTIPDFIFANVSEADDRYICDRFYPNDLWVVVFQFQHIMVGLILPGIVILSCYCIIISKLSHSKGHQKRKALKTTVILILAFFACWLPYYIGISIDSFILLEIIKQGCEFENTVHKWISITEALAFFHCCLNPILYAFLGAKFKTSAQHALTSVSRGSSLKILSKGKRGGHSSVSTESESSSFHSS

Regarding `Cc1ccccc1CNCCC[C@H](NC(=O)c1ccc(CNCc2ncc[nH]2)cc1)C(=O)N[C@@H](C)c1cccc2ccccc12` [Compound No. 1, N-[(S)-1-(1-naphthyl)ethyl]-5-(2-methylbenzyl)amino-2-(S)-[4-[N-(imidazol-2-ylmethyl)aminomethyl]benzoyl]aminopentanoylamide], the pEC50 in data set [1] is 7.24. In data set [2], the inhibition at 0.1 µM came out at 100%.
For `COc1ccccc1CNCCC[C@H](NC(=O)c1ccc(CNCc2ncc[nH]2)cc1)C(=O)N[C@@H](C)c1cccc2ccccc12` [Compound No. 2, N-[(S)-1-(1-naphthyl)ethyl]-5-(2-methoxybenzyl)amino-2-(S)-[4-[N-(imidazol-2-ylmethyl)aminomethyl]benzoyl]aminopentanoylamide], the pEC50 in data set [1] was 7.00. For the same molecule, the inhibition at 0.1 µM in data set [2] stood at 97.6%.
Take `Cc1cccnc1CNCCC[C@H](NC(=O)c1ccc(CNCc2ncc[nH]2)cc1)C(=O)N[C@@H](C)c1cccc2ccccc12` [Compound No. 9, N-[(S)-1-(1-naphthyl)ethyl]-5-(3-methylpyridin-2-yl)methylamino-2-(S)-[4-[N-(imidazol-2-ylmethyl)aminomethyl]benzoyl]aminopentanoylamide]: the pEC50 in data set [1] is 7.26. The Dead mice/test mice in data set [3] is 0/5.
As to `CCc1ccccc1CNCCC[C@H](NC(=O)c1ccc(CNCc2ncc[nH]2)cc1)C(=O)N[C@@H](C)c1cccc2ccccc12` [Compound No. 22, N-[(S)-1-(1-naphthyl)ethyl]-5-(2-ethylbenzyl)amino-2-(S)-[4-[N-(imidazol-2-ylmethyl)aminomethyl]benzoyl]aminopentanoylamide], the pEC50 in data set [1] was 7.52.
In the case of `C[C@H](NC(=O)[C@H](CCCNC1CCCCC1)NC(=O)c1ccc(CNCc2ncc[nH]2)cc1)c1cccc2ccccc12` [Compound No. 27, N-[(S)-1-(1-naphthyl)ethyl]-5-cyclohexylamino-2-(S)-[4-[N-(imidazol-2-ylmethyl)aminomethyl]benzoyl]aminopentanoylamide], the inhibition at 0.1 µM in data set [2] came to 97%.
The same measure, in the same setting: the result for `C[C@H](NC(=O)[C@H](CCCNC1CCCc2ccccc21)NC(=O)c1ccc(CNCc2ncc[nH]2)cc1)c1cccc2ccccc12` (stereo partly drawn) [Compound No. 28, N-[(S)-1-(1-naphthyl)ethyl]-5-(1,2,3,4-tetrahydronaphthalen-1-yl)amino-2-(S)-[4-[N-(imidazol-2-ylmethyl)aminomethyl]benzoyl]aminopentanoylamide] reads 100%.
For the molecule `C[C@H](NC(=O)[C@H](CCCNC1CCc2ccccc21)NC(=O)c1ccc(CNCc2ncc[nH]2)cc1)c1cccc2ccccc12` (stereo partly drawn) [Compound No. 29, N-[(S)-1-(1-naphthyl)ethyl]-5-(indan-1-yl)amino-2-(S)-[4-[N-(imidazol-2-ylmethyl)aminomethyl]benzoyl]aminopentanoylamide], the inhibition at 0.1 µM in data set [2] was determined as 100%. Moreover, in data set [3], the Dead mice/test mice is 0/5.
Take `CC(C)CN(CCC[C@H](NC(=O)c1ccc(CNCc2ncc[nH]2)cc1)C(=O)N[C@@H](C)c1cccc2ccccc12)CC(C)C` [Compound No. 33, N-[(S)-1-(1-naphthyl)ethyl]-5-diisobutylamino-2-(S)-[4-[N-(imidazol-2-ylmethyl)aminomethyl]benzoyl]aminopentanoylamide]: the pEC50 in data set [1] was 8.17. In addition, in data set [2], the inhibition at 0.1 µM was 100%. Also, the Dead mice/test mice in data set [3] was 0/5.
The corresponding values for `CCCN(CCC)CCC[C@H](NC(=O)c1ccc(CNCc2ncc[nH]2)cc1)C(=O)N[C@@H](C)c1cccc2ccccc12` [Compound No. 34, N-[(S)-1-(1-naphthyl)ethyl]-5-di-n-propylamino-2-(S)-[4-[N-(imidazol-2-ylmethyl)aminomethyl]benzoyl]aminopentanoylamide] are 7.82, 98% and 0/5.
Turning to `CCCN(CCC[C@H](NC(=O)c1ccc(CNCc2ncc[nH]2)cc1)C(=O)N[C@@H](C)c1cccc2ccccc12)CC(C)C` [Compound No. 39, N-[(S)-1-(1-naphthyl)ethyl]-5-(N-n-propyl-isobutylamino)-2-(S)-[4-[N-(imidazol-2-ylmethyl)aminomethyl]benzoyl]aminopentanoylamide], the pEC50 in data set [1] was 7.84. In addition, in data set [3], the Dead mice/test mice was 0/5.
The like results for `C[C@H](NC(=O)[C@H](CCCN(C)C1CCCCC1)NC(=O)c1ccc(CNCc2ncc[nH]2)cc1)c1cccc2ccccc12` [Compound No. 42, N-[(S)-1-(1-naphthyl)ethyl]-5-(N-methyl-cyclohexylamino)-2-(S)-[4-[N-(imidazol-2-ylmethyl)aminomethyl]benzoyl]aminopentanoylamide] were, in that order, 7.84 and 0/5.
Regarding `C[C@H](NC(=O)[C@H](CCCN1CCCCCC1)NC(=O)c1ccc(CNCc2ncc[nH]2)cc1)c1cccc2ccccc12` [Compound No. 55, N-[(S)-1-(1-naphthyl)ethyl]-5-(hexamethyleneimin-1-yl)-2-(S)-[4-[N-(imidazol-2-ylmethyl)aminomethyl]benzoyl]aminopentanoylamide], the pEC50 in data set [1] was 7.54. Besides, in data set [2], the inhibition at 0.1 µM was 89.3%. Also, in data set [3], the Dead mice/test mice is listed as 0/5.
On to `CC(C)CN(CCO)CCC[C@H](NC(=O)c1ccc(CNCc2ncc[nH]2)cc1)C(=O)N[C@@H](C)c1cccc2ccccc12` [Compound No. 66, N-[(S)-1-(1-naphthyl)ethyl]-5-(N-isobutyl-(2-hydroxyethyl)amino)-2-(S)-[4-[N-(imidazol-2-ylmethyl)aminomethyl]benzoyl]aminopentanoylamide], for which, in data set [1], the pEC50 was 7.70. Moreover, the inhibition at 0.1 µM in data set [2] worked out at 90.6%. Moreover, the Dead mice/test mice in data set [3] is 0/5.
On to `C[C@H](NC(=O)[C@H](CCCSC(=N)N)NC(=O)c1ccc(CNCc2ccccn2)cc1)c1cccc2ccccc12` [Compound No. 73, N-[(S)-1-(1-naphthyl)ethyl]-5-sulfinamidino-2-(S)-[4-[N-(pyridin-2-ylmethyl)aminomethyl]benzoyl]aminopentanoylamide], for which the pEC50 in data set [1] was 7.16. For the same molecule, the inhibition at 0.1 µM in data set [2] was found to be 93.5%. The Dead mice/test mice in data set [3] is 0/5.
`C/N=C(\N)SCCC[C@H](NC(=O)c1ccc(CNCc2ccccn2)cc1)C(=O)N[C@@H](C)c1cccc2ccccc12` [Compound No. 74, N-[(S)-1-(1-naphthyl)ethyl]-5-(N-methylsulfinamidino)-2-(S)-[4-[N-(pyridin-2-ylmethyl)aminomethyl]benzoyl]aminopentanoylamide]: the pEC50 in data set [1] was 7.34. Also, in data set [3], the Dead mice/test mice is recorded as 0/5.
